From US9469656B2, “HDAC inhibitors as anti-cancer agents” (The University of Toledo, priority 2014, dated 2016)

Legend:
[1] = system: NCI 60 cell line assay (leukemia, non-small cell lung cancer, colon cancer, CNS cancer, melanoma, ovarian cancer, renal cancer, prostate cancer, and breast …); experiment: NCI 60 cell line assay, cell proliferation inhibition; type: cell-based, human; details: for anti-proliferative activity compared with largazole: 5 μM concentration; for inhibition of cell survival compared with largazole: at 5 μM; for inhibitory activity compared with largazole: at lower concentrations (below 5 μM)
Experimental: Understanding how these compounds affect cellular HDAC activity is important. Therefore, the biological effects of all these analogues were evaluated. As described in the examples, the analogues JA1-JA6, AA1-AA2, and RF1 were tested in the NCI 60 cell line assay, which includes leukemia, non-small cell lung cancer, colon cancer, CNS cancer, melanoma, ovarian cancer, renal cancer, prostate cancer, and breast cancer cell lines. […] The analogues were tested in the NCI 60 cell line assay using standard assay protocol. The NCI 60 cell line assay includes leukemia, non-small cell lung cancer, colon cancer, CNS cancer, melanoma, ovarian cancer, renal cancer, prostate cancer, and breast cancer cell lines. Results of the cell proliferation inhibition studies at a single dose of 10 μM are shown in FIGS. 16-21, and FIGS. 26-27, and results of the dose response studies for JA1, JA2, and J3 are shown in FIGS. 22-24. FIGS. 26-27 show the results of single dose response evaluations of AA1 and AA2, respectively, in the NCI 60 cell line assay.

[2] = system: HDAC isoforms; details: cited from earlier work
[3] = system: LNCaP; details: cited from earlier work
[4] = system: PC-3; details: cited from earlier work

Row | Compound | anti-proliferative activity compared with largazole [1] | inhibition of cell survival compared with largazole [1] | inhibitory activity compared with largazole [1] | also measured
1 | CCCCCCCC(=O)SCC/C=C/[C@@H]1CC(=O)NCc2cccc(n2)-c2cccc(n2)C(=O)N[C@@H](C(C)C)C(=O)O1 [JA2] |  |  |  | potency rank among the analogues [1]: most potent analogue; anti-proliferative activity compared to largazole ([1]; at concentrations greater than 0.1 μM): higher anti-proliferative activity compared to largazole
2 | CCCCCCCC(=O)SCCC=CC1CC(=O)NCc2nc(cs2)C2=NC(C)(CS2)C(=O)NC(C(C)C)C(=O)O1 (centres unmarked) [C-2 epimer of largazole] |  |  |  | inhibitory potency against HDAC isoforms [2]: sub-micromolar; inhibition of viability compared with largazole [3]: more potent than largazole; inhibition of viability compared with largazole [4]: more potent than largazole
3 | CCCCCCCC(=O)SCC/C=C/[C@@H]1CC(=O)NCc2cccc(n2)CN(C)CC(=O)N[C@@H](C(C)C)C(=O)O1 [JA3] | equivalent to largazole | nearly as effectively as largazole | less inhibitory activity | 
4 | CCCCCCCC(=O)SCC/C=C/[C@@H]1CC(=O)NCCOCCOCC(=O)N[C@@H](C(C)C)C(=O)O1 [JA1] | equivalent to largazole | nearly as effectively as largazole | less inhibitory activity | 
